# According to patent publication US7064114B2, “Gel-microemulsion formulations” (priority 1999, dated 2006):
# Values joined by “and” are separate entries in the source; they are usually repeats but may differ in a detail not shown here. Equal entries are not always repeated.
# How the values were obtained:
# human sperm = test: Computer-assisted spermicidal assay (CASA) on washed highly motile fraction of sperm; assay type: cell-based; conditions: 3 h at 37° C.; for effect on human sperm motility: concentrations up to those used for GM-4, CASA
# Procedure: All donor specimens were obtained after informed consent and in compliance with the guidelines of the Parker Hughes Institute Institutional Review Board. […] Sigma Chemical Co., St. Louis, Mo.) in the presence and absence of serial 2-fold dilutions of test substance. […] After 3 h incubation at 37° C., the sperm head centroid-derived sperm motility parameters were determined using a Hamilton Thorne Research (Danvers, Mass.) Integrated Visual Optical System (IVOS), version 10 instrument, as previously described (D'Cruz O J, et al., Biol Reprod, 1998;58:1515-26.; D'Cruz O J, et al., Mol Hum Reprod, 1998;4:683-93.; D'Cruz O J, et al., Biol Reprod, 1999;60:435-44.; D'Cruz O J, et al. Biol Reprod, 1999;60:1419-28.). The attributes of sperm kinematic parameters evaluated included numbers of motile (MOT) and progressively (PRG) motile sperm; curvilinear velocity (VCL); average path velocity (VAP); straight-line velocity (VSL); beat-cross frequency (BCF); and the amplitude of lateral head displacement (ALH) and the derivatives, straightness (STR) and linearity (LIN). Data from each individual cell track were recorded and analyzed. For each aliquot sampled, >200 sperm were analyzed. The percentage motilities were compared with those of sham-treated control suspensions of motile sperm.
# [1] = cited from earlier work
# Solubility of WHI-07 = assay type: physicochemical; conditions: for solubility at 2 h: thermodynamic from solid, n = 3
# Procedure: (§1) After the drug was completely dissolved in octanol, 5 ml of water was added to each octanol solution. The mixtures were handshaken vigorously for 10 min, and afterward let to stand overnight until a complete phase separation occurred.
# The solubility of WHI-07 in Captex® 300 and polyethylene glycol 300 was carried out using UV-Vis spectrophotometer at 272 nm.
# Calibration curve: Two stock solutions of WHI-07 were prepared in ethanol at concentrations of 4.2 mg/ml and 3.85 mg/ml respectively. The plot of the calibration curve is shown in Curve 1.
# Appropriate amounts of WHI-07 and Captex® 300 or PEG300 were weighed and placed in glass containers. Each sample was stirred with a stir bar at ambient temperature for 2 hours. Each sample was then filtered through 0.45 μm filter, and diluted with ethanol for UV-Vis measurement.
# [2] = Octanol/water partition coefficient of WHI-07; assay type: physicochemical
# Procedure: as §1
# Samples of water and octanol were taken from each mixture, and directly injected into the HPLC for analysis. The peak area ratios represent the partition coefficient.
compound,measurement,setting,value
"CC(O)CO (stereo not drawn) [propylene glycol, propane-1,2-diol]",EC50 (concentration that decreased the proportion of motile sperm by 50%),human sperm,> 4.2%
same,effect on human sperm motility,human sperm,partially spermicidal at the highest concentration tested
isononyl-phenyl-polyoxyethylene (9) ether [N-9],average 6-month pregnancy rate,"[1]; users of N-9, several large studies",26%
same,effectiveness in preventing pregnancy,[1]; users of N-9,approximately 75%
O=C([O-])c1ccccc1.[Na+] [sodium benzoate],effect on human sperm motility,human sperm,little or no inhibitory effects
"COC(=O)C(C)NP(=O)(OC[C@H]1O[C@@H](N2C(=O)NC(=O)C(C)(Br)C2OC)CC1N=[N+]=[N-])Oc1ccc(Br)cc1 (mixture of isomers) [WHI-07, (5R,6R)-and (5S,6S)-5-bromo-6-methoxy-5,6-dihydro-AZT-5′-(para-bromophenylmethoxyalaninyl phosphate)]",solubility in oil (medium chain triglyceride),Solubility of WHI-07; medium chain triglyceride,4.1%
same,solubility at 2 h,"Solubility of WHI-07; oil or lipid, in Captex® 300, ambient temperature",40.6 mg/mL
same,solubility at 2 h,"Solubility of WHI-07; organic solvent or mixture, in PEG300, ambient temperature",132 mg/mL
same,solubility in polyethylene glycol 300,Solubility of WHI-07; polyethylene glycol 300,13.1%
same,solubility in water,Solubility of WHI-07; water,< 0.003%
same,logP,"[2]; octanol/water, average of four samples, read-out: Octanol/Water partition coefficient Log KD",2.05
same,Peak area ratio Octanol/water,"[2]; single samples 1-4, HPLC",113.9 and 111.3 and 115.8 and 109.2
